This note sets out measurements from PMC10869644 (Molecular plant, 2024).

This assay deals with T1, ABA2 (ABA DEFICIENT 2) (Arabidopsis thaliana, UniProt Q9C826).
T1 sequence (Q9C826 1-285 limits assumed): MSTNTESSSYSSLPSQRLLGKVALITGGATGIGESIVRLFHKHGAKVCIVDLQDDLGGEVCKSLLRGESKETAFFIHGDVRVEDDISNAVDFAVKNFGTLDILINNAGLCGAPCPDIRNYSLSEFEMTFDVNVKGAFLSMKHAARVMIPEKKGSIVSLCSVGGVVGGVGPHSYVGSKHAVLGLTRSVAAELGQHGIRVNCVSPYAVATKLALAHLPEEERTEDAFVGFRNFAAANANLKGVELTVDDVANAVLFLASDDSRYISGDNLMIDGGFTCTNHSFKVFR
Nature of the assay: NADH formation at A340, dehydrogenase activity. In kind it is biochemical. Particulars: 500 μM NAD+, 30 mM 3,5,5′-trimethylcyclohexanol, 100 mM K2HPO4 pH 7.2, 25°C; noncompetitive.

di-18:1-PA: the “% decrease of activity (2 μg lipid)” value was found to be 75%.
